Data reported in patent US20250170079A1, “COMBINATIONS OF STAT-INHIBITORS AND IMMUNE CHECKPOINT INHIBITORS FOR THE TREATMENT AND/OR MANAGEMENT OF CANCER” (Tvardi Therapeutics, Inc., priority 2022, published 2025).

How the values were obtained:
[1] = Bioavailability and pharmacokinetics of TTI-101 following IP or PO administration; format: in vivo, male Sprague-Dawley rats; conditions: PO 25 mg/kg vs IP 25.6 mg/kg, single dose, rats
Method: Bioavailability and pharmacokinetics of TTI-101 in male Sprague-Dawley rats were evaluated following a single oral (PO) dose at 25 mg/kg (in labrasol:PEG400, 60:40% v/v) and a single intraperitoneal (IP) dose at 25.6 mg/kg (pH 7.4 PBS/propylene glycol/ethanol/DMSO, 20:70:5:5% v/v).

[2] = system: subcutaneous liver cancer syngeneic model H22; experiment: In vivo efficacy study of TTI-101 ± anti-PD-1 in subcutaneous liver cancer syngeneic model H22; design: species or system female BALB/c mice; conditions: TTI-101 1.2 mg/mouse p.o. BID*3 weeks and/or anti-PD-1 10 mg/kg i.p. BIW*3 weeks
Description: The objective of efficacy study was to evaluate preclinically the in vivo therapeutic efficacy of TTI-101 alone and in combination with anti-PD-1 in the treatment of subcutaneous liver cancer syngeneic model H22 in female BALB/c mice. The objective of rechallenge study was to evaluate immune memory of the female BALB/c mice previously cured from subcutaneous liver cancer syngeneic model H22 by TTI-101 combined with anti-PD-1.
Dosing volume of Anti-PD-1 (clone RMP1-14) was adjusted for body weight. The concentration of anti-PD-1 was 1 mg/mL, and dosing volume was 10 μL/g. The anti-PD-1 dosing solution was prepared by diluting 1.372 mL of anti-PD-1 (8.2 mg/mL) with 9.878 mL of PBS.
A composition of TTI-101 (72 mg/mL) dissolved in Kolliphor RH40, PEG600, Labrasol, Tween 20, and citric acid solution, was then dispersed in 1:2 water (vortexed) to form the dosing emulsion. The concentration of TTI-101 in the dosing emulsion was 24 mg/mL.
The H22 tumor cells were maintained in vitro with RPMI1640 medium supplemented with 10% fetal bovine serum (FBS) at 37° C. in an atmosphere of 5% CO2 in air. The cells in exponential growth phase were harvested and quantitated by cell counter before tumor inoculation.
In efficacy study, each mouse was inoculated subcutaneously in the right front flank region with tumor cells (1×10^6) in 0.1 ml of PBS for tumor development.
The randomization in efficacy study started when the mean tumor size reached approximately 73 mm^3 (for groups 1-5) and 96 mm^3 (for groups 6-9). Totally 82 mice were enrolled in the study and randomly allocated to 9 study groups, with 10 mice per group (groups 1-5) and 8 mice per group (groups 6-9). Randomization was performed based on “Matched distribution” method (Study Director TM software, version 3.1.399.19). The date of randomization was denoted as Day 1.
Test articles were given between 8 am-9 am then again between 4 pm-5 pm.
For group 5, TTI-101 was initiated 5 days post anti-PD-1 dosing per the request.
Tumor volumes were measured twice per week after randomization in two dimensions using a caliper, and the volume was expressed in mm^3 using the formula: V=(L×W×W)/2, where V is tumor volume, L is tumor length (the longest tumor dimension) and W is tumor width (the longest tumor dimension perpendicular to L). Dosing as well as tumor and body weight measurements were conducted in a Laminar Flow Cabinet.
Tumor growth inhibition (TGI), T/C value and Survival was applied at the endpoint.
Tumor regression (REG)=[(T0−Ti)/T0]×100%;
Tumor Growth Inhibition; TGI %=(1−Ti/Ci)*100;
Treatment/Control (T/C) value (%) is an indicator of tumor response to treatment, and one of commonly used anti-tumor activity endpoint; T and C are the mean tumor volumes of the treatment and control groups, respectively, on a given day. […]

[3] = Day 21, vs vehicle+isotype group

greater exposure by oral administration compared to interperitoneal administration [1]: 90%
Compound: COc1ccc(S(=O)(=O)Nc2cc(-c3c(O)ccc4ccccc34)c(O)c3ccccc23)cc1 [TTI-101, N-(1′,2-dihydroxy-1,2′-binaphthalen-4′-yl)-4-methoxybenzenesulfonamide]
T/C (%) on Day 21 [2, 3]: 78.33% | TGI (%) on Day 21 [2, 3]: 21.67% | CR Ratio (tumor complete response, tumor regressed to 0) ([2]; animals with CR / animals per group): 0/10 | Tumor volume (mm^3) (N) on Day 21 ([2]; mean ± SEM, Day 21): 2073.36 mm^3
